Data on 14 compounds can be found in patent US20140219995A1, “INHIBITORS OF BACTERIAL TYPE III SECRETION SYSTEM” (priority 2011, published 2014).

The test system of series [1] is T3SS-mediated cytotoxicity of translocated effector protein ExoU in CHO cells. The series is described as follows: Inhibition of P. aeruginosa ExoU-dependent CHO cell killing (translocation, LDH release). The class given is cell-based. The note with it: Pseudomonas aeruginosa, read-out: Avg. Translocation IC50. The text has this:
Inhibition of P. aeruginosa ExoU-Dependent CHO Cell Killing.
Pseudolipasin, which acts by direct inhibition of the ExoU phospholipase, was used as control inhibitor (Lee, et al, 2007, Infect. Immun., 75:1089-98).

Series [2] can be described thus: Determination of mammalian cytotoxicity (MTS). The series is classed as cell-based. The note with it: human. On the procedure:
Determination of Mammalian Cytotoxicity.
See, Marshall, et al., 1995, A critical assessment of the use of microculture tetrazolium assays to measure cell growth and function, Growth Regul., 5:69-84. Briefly, 96-well plates were seeded with HeLa cells at a density of 4×10^3 per well in VP-SFM medium without serum (Frazzati-Gallina, et al., 2001, J. Biotechnol., 92:67-72), in the presence or absence of serial dilutions of a compound dissolved in DMSO. Following incubation for 3 days at 37° C. in VP-SFM, cell viability was measured with the vital tetrazolium salt stain 3-(4,5-dimethylthiazol-2-yl)-2,5 diphenyltetrazolium bromide according to the manufacturer's instructions (Promega, Madison, Wis.). Values were determined in duplicate using dilutions of inhibitory compound from 100 μM to 0.2 μM.

Series [3] relates to T3SS-mediated secretion of ExoS′-βLA fusion protein, P. aeruginosa strain MDM973. In words: Effector-β-lactamase (ExoS′-βLA) secretion assay. The class given is cell-based, Pseudomonas aeruginosa. The conditions noted are these: for pIC50: Pseudomonas aeruginosa, read-out: Avg. Secretion IC50. The text has this: Effector-β-Lactamase (βLA) Secretion Assays.
P. aeruginosa. A gene encoding an ExoS'-β-lactamase (βLA) fusion protein (comprised of 234 codons of P. aeruginosa effector ExoS fused to the TEM-1 β-lactamase gene lacking secretion signal codons) was constructed by splicing by overlap extension PCR (SOE-PCR) (Choi and Schweizer, 2005, BMC Microbiol., 5:30) using primers 5-10 (Table 3, above), sequence confirmed, cloned into lacI^Q-containing GATEWAY® vector pUCP24GW (see Moir, et al., 2007, J Biomol. Screen., 12:855-64) behind the lac promoter, and introduced into P. aeruginosa by electroporation (see Choi, et al., 2006, J. Microbiol. Methods, 64:391-7). Secretion of fusion proteins was detected by measuring the hydrolysis of the chromogenic β-lactamase substrate nitrocefin in clear 96-well microplates in a modification of a previously described assay (Lee, et al., 2007, Infect. Immun., 75:1089-98). Cells of strain MDM973 (PAK/pUCP24GW-exoS:blaM) were sub-cultured in the morning from overnight growths in LBG into 0.1 ml of LBGIE with or without test compounds and grown for 150 min. Nitrocefin (100 μg/ml final) was added, and A490 measurements taken every minute for 15 min in a Victor^3V 1420 Multilabel HTS Counter (PerkinElmer). Slopes were calculated as a relative measure of the quantity of the effector-βLA fusion protein secreted and were absolutely dependent on induction with IPTG, EGTA, and the presence of a functional pscC gene in the P. aeruginosa cells. Typical signal:background ratios were 6-10.

Setting [4] is: Table 4, HeLa cells, 3 days, dilutions from 100 μM to 0.2 μM, read-out: Avg. CC50.

pIC50: −log10 of the molar value. Read-outs that look alike come from different tables or passages of the source.

Take `CC(Oc1ccc(Cl)cc1Cl)C(=O)NCc1ccc2cc[nH]c2c1` (stereo not drawn) [MBX-2594]: the melting point (as a rule, the temperature, or range, at which the solid turns liquid) turned out to be 120 °C. Besides, the negative-log IC50 (pIC50) – broadly, the negative decadic logarithm of the IC50, by convention in mol/L – in series [1] is 5.28. Besides, the CC50 (commonly the concentration at which the toxic effect on the cells reaches its halfway point) at 3 days in series [2] (setting [4]) is 10.4 µM. Moreover, the negative logarithm of the IC50 (pIC50) in series [3] was 5.80.

With `Cc1c(-c2ccccc2)[nH]c2ccc(CNC(=O)C(C)Oc3ccc(Cl)cc3Cl)cc12` (stereo not drawn) [MBX-2600], the melting point came to 68 °C. Moreover, in series [1], the pIC50 is 4.08. In series [2], this compound displayed a CC50 at 3 days of 24 µM. In addition, the pIC50 in series [3] is 5.05.

`CC(Oc1ccc(Cl)cc1Cl)C(=O)NC(C)(C)c1ccc2c(c1)OCO2` (stereo not drawn) [MBX-2220] had a melting point of 105 °C. In addition, the negative-log IC50 (pIC50) in series [1] was 4.82. Also, in series [2] (setting [4]), the CC50 at 3 days stood at 64 µM. Besides, in series [3], the negative-log IC50 (pIC50) was 5.54. Further, the “IC50 values lower (T3SS secretion inhibition)” value in series [3] (vs. MBX-1641) worked out at 29%.

For the compound `CC(Oc1ccc(Cl)cc1Cl)C(=O)NCc1ccc2[nH]cnc2c1` (stereo not drawn) [MBX-2593], the melting point worked out at 71 °C. Besides, the pIC50 in series [1] is 4.48. In series [2], this compound gave a CC50 at 3 days greater than 100 µM. Further, the pIC50 in series [3] was 5.15.

On to `CC(Oc1ccc(Cl)cc1Cl)C(=O)NCc1ccc2[nH]c(CCO)cc2c1` (stereo not drawn) [MBX-2626], for which the melting point came to 157 °C. The pIC50 in series [1] is 5.04. Also, the CC50 at 3 days in series [2] was greater than 100 µM. Moreover, the pIC50 in series [3] is 5.27.

In turn, `CC(Oc1ccc(Cl)cc1Cl)C(=O)NCc1ccc(N(C)C)cc1` (stereo not drawn) [MBX-1961] gave a melting point of 127 °C. In addition, the pIC50 in series [1] was 5.47. Also, the CC50 at 3 days in series [2] (setting [4]) was 86 µM. For the same compound, the negative-log IC50 (pIC50) in series [3] is 4.48.

The compound `CC(Oc1ccc(Cl)cc1Cl)C(=O)NCCc1c[nH]c2cc(F)ccc12` (stereo not drawn) [MBX-2613] yielded a melting point of 114 °C. In series [1], the pIC50 was 5.00. In addition, in series [2], it took 7 µM to reach half-maximal cytotoxicity (CC50 at 3 days). For the same compound, the negative logarithm of the IC50 (pIC50) in series [3] was 4.92.

Compound `CC(Oc1ccc(Cl)cc1Cl)C(=O)NCc1ccc2c(ccn2C)c1` (stereo not drawn) [MBX-2591] had a melting point of 146 °C. In series [1], the negative logarithm of the IC50 (pIC50) was less than 4.00. Moreover, the CC50 at 3 days in series [2] (setting [4]) came out at 38 µM. For the same compound, the negative logarithm of the IC50 (pIC50) in series [3] was 5.39.

`CC(Oc1ccc(Cl)cc1Cl)C(=O)NC(C#N)c1ccc(F)cc1` (stereo not drawn) [MBX-2627] yielded a melting point of 112 °C. Also, in series [1], the pIC50 is 4.96. In addition, in series [2] (setting [4]), the half-maximal cytotoxic concentration (CC50) at 3 days is 26 µM. In addition, in series [3], the pIC50 was 5.23.

Compound `CC(Oc1ncc(Cl)cc1Cl)C(=O)NCc1ccc(F)cc1` (stereo not drawn) [MBX-2158] yielded a melting point of 129 °C. In addition, in series [1], the negative-log IC50 (pIC50) was 4.58. The 50% cytotoxic concentration (CC50) at 3 days in series [2] (setting [4]) was greater than 100 µM. In addition, the negative logarithm of the IC50 (pIC50) in series [3] was 5.17.

Consider `CC(Oc1ccc(Cl)cc1Cl)C(=O)NCc1ccc2occc2c1` (stereo not drawn) [MBX-2592], for which the melting point was determined as 125 °C. Further, in series [1], the pIC50 is less than 4.00. For the same compound, the CC50 at 3 days in series [2] (setting [4]) turned out to be 44 µM. Further, the negative logarithm of the IC50 (pIC50) in series [3] was 5.60.

In turn, `CC(Oc1ccc(Cl)cc1Cl)C(=O)NCc1ccc2c(c1)CCCO2` (stereo not drawn) [MBX-1997] came in with a melting point of 106 °C. Also, in series [1], the pIC50 was 5.04. In series [2] (setting [4]), the 50% cytotoxic concentration (CC50) at 3 days was greater than 100 µM. The pIC50 in series [3] is 5.14.

`COc1cccc(OC)c1CNC(=O)C(C)Oc1ccc(Cl)cc1Cl` (stereo not drawn) [MBX-1950] displayed a melting point of 122 °C. For the same compound, the negative-log IC50 (pIC50) in series [1] was 5.30. In addition, the CC50 at 3 days in series [2] (setting [4]) came to 22 µM. Besides, in series [3], the pIC50 was 4.27.

Turning to `CC(Oc1ccc(Cl)cc1Cl)C(=O)NC1CCc2cc(F)ccc21` (stereo not drawn) [MBX-2595], the melting point was 135 °C. The negative logarithm of the IC50 (pIC50) in series [1] was less than 4.00. Further, in series [2] (setting [4]), the cytotoxic concentration (CC50) at 3 days was determined as 35 µM. Besides, the pIC50 in series [3] was 4.80.
